From PubChem BioAssay AID330 (DTP/NCI, 2004)
Values joined by “and” are separate entries in the source; they are usually repeats but may differ in a detail not shown here. Identical values can stand only once. Inconclusive results and toxic doses are left out.

System: P388 leukemia ip, CD2F1 mice, survival T/C
Experiment: NCI In Vivo Anticancer Drug Screen. Data for tumor model P388 Leukemia (intraperitoneal) in CD2F1 (CDF1) mice
Settings: endpoint: median survival time, higher = longer survival
Outline: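 Mice carrying the transplanted tumor received test compound or vehicle. Survival was recorded in each group, and the value is the treated-group measurement divided by that of the vehicle-treated control group.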

[1] = dose: 50.0 mg/kg/injection, schedule: Q01DX005 (ip), vehicle: saline with Tween-80
[2] = dose: 100.0 mg/kg/injection, schedule: Q01DX005 (ip), vehicle: saline with Tween-80
[3] = dose: 200.0 mg/kg/injection, schedule: Q01DX005 (ip), vehicle: saline with Tween-80
[4] = dose: 50.0 mg/kg/injection, schedule: Q01DX009 (ip), vehicle: saline
[5] = dose: 100.0 mg/kg/injection, schedule: Q01DX009 (ip), vehicle: saline
[6] = dose: 200.0 mg/kg/injection, schedule: Q01DX009 (ip), vehicle: saline
[7] = dose: 60.0 mg/kg/injection, schedule: Q01DX005 (ip), vehicle: Klucel (hydroxypropylcellulose) (HPC)
[8] = dose: 120.0 mg/kg/injection, schedule: Q01DX005 (ip), vehicle: Klucel (hydroxypropylcellulose) (HPC)
[9] = dose: 240.0 mg/kg/injection, schedule: Q01DX005 (ip), vehicle: Klucel (hydroxypropylcellulose) (HPC)
[10] = dose: 50.0 mg/kg/injection, schedule: Q01DX009 (ip), vehicle: saline with Tween-80
[11] = dose: 100.0 mg/kg/injection, schedule: Q01DX009 (ip), vehicle: saline with Tween-80
[12] = dose: 200.0 mg/kg/injection, schedule: Q01DX009 (ip), vehicle: saline with Tween-80
[13] = dose: 50.0 mg/kg/injection, schedule: Q01DX005 (ip), vehicle: saline
[14] = dose: 100.0 mg/kg/injection, schedule: Q01DX005 (ip), vehicle: saline
[15] = dose: 200.0 mg/kg/injection, schedule: Q01DX005 (ip), vehicle: saline
[16] = dose: 100.0 mg/kg/injection, schedule: Q04DX003 (ip), vehicle: saline
[17] = dose: 200.0 mg/kg/injection, schedule: Q04DX003 (ip), vehicle: saline
[18] = dose: 400.0 mg/kg/injection, schedule: Q04DX003 (ip), vehicle: saline

CCOc1cc2c3c(c(C)cc2cn1)CCC3=O
T/C (dose: 6.25 mg/kg/injection, schedule: Q01DX009 (ip), vehicle: distilled water + Tween-80): 96 % of control
T/C (dose: 12.5 mg/kg/injection, schedule: Q01DX009 (ip), vehicle: distilled water + Tween-80): 100 % of control
T/C (dose: 25.0 mg/kg/injection, schedule: Q01DX009 (ip), vehicle: distilled water + Tween-80): 114 % of control
T/C (dose: 50.0 mg/kg/injection, schedule: Q01DX009 (ip), vehicle: distilled water + Tween-80): 98 % of control and 96 % of control
T/C (dose: 100.0 mg/kg/injection, schedule: Q01DX009 (ip), vehicle: distilled water + Tween-80): 115 % of control and 87 % of control
T/C (dose: 200.0 mg/kg/injection, schedule: Q01DX009 (ip), vehicle: distilled water + Tween-80): 118 % of control

N#Cc1c(NC(=O)C(Cl)(Cl)Cl)sc2c1CCCC2
T/C [1]: 105 % of control
T/C [2]: 110 % of control
T/C [3]: 117 % of control

CC1OC(OC2C(O)C(OCCc3ccc(O)c(O)c3)OC(CO)C2OC(=O)/C=C/c2ccc(O)c(O)c2)C(O)C(O)C1O (stereo not given)
T/C (dose: 4.75 mg/kg/injection, schedule: Q01DX005 (ip), vehicle: Klucel (hydroxypropylcellulose) (HPC)): 106 % of control
T/C (dose: 9.5 mg/kg/injection, schedule: Q01DX005 (ip), vehicle: Klucel (hydroxypropylcellulose) (HPC)): 100 % of control
T/C (dose: 19.0 mg/kg/injection, schedule: Q01DX005 (ip), vehicle: Klucel (hydroxypropylcellulose) (HPC)): 100 % of control
T/C (dose: 38.0 mg/kg/injection, schedule: Q01DX005 (ip), vehicle: Klucel (hydroxypropylcellulose) (HPC)): 100 % of control

Nc1ccc2nnnn2n1
T/C [4]: 100 % of control
T/C [5]: 98 % of control
T/C [6]: 98 % of control

C=C1C(=O)O[C@@H]2C(=O)[C@@H](C)[C@@H]3C=CC(=O)[C@@]3(C)[C@@H](OC(=O)/C(C)=C\C)[C@H]12
T/C (dose: 2.0 mg/kg/injection, schedule: Q01DX009 (ip), vehicle: saline + alcohol): 107 % of control
T/C (dose: 4.0 mg/kg/injection, schedule: Q01DX009 (ip), vehicle: saline + alcohol): 99 % of control
T/C (dose: 8.0 mg/kg/injection, schedule: Q01DX009 (ip), vehicle: saline + alcohol): 109 % of control and 123 % of control
T/C (dose: 16.0 mg/kg/injection, schedule: Q01DX009 (ip), vehicle: saline + alcohol): 116 % of control

CCOC(=O)c1cc(=O)c2c(OC)ccc(Cl)c2[nH]1
T/C [7]: 100 % of control
T/C [8]: 99 % of control
T/C [9]: 96 % of control

CC1=C(C)C2(C)S(=O)Nc3ccccc3C12C (stereo not given)
T/C [7]: 99 % of control
T/C [8]: 99 % of control
T/C [9]: 87 % of control

CCOC(=O)C1=C(C)N(Cc2ccccc2)C2(O)C1=CC(=O)C(Cl)=C2Cl (stereo not given)
T/C [4]: 99 % of control
T/C [5]: 105 % of control
T/C [6]: 108 % of control

O=C(CNC(=O)Nc1ccc(Cl)c(Cl)c1)N/N=C/c1ccc2c(c1)OCO2
T/C [10]: 91 % of control
T/C [11]: 90 % of control
T/C [12]: 89 % of control

O=C(O)c1cc(NCCO)c(C(=O)O)cc1NCCO
T/C [13]: 97 % of control
T/C [14]: 100 % of control
T/C [15]: 91 % of control

C=C(c1ccccc1)N1N=NC2CCOC21 (stereo not given)
T/C [1]: 105 % of control
T/C [2]: 99 % of control
T/C [3]: 100 % of control

COc1ccc(C2C3=C(CCC(CN(C)C)C3=O)OC3=C2C(=O)C(CN(C)C)CC3)cc1 (stereo not given)
T/C (dose: 60.0 mg/kg/injection, schedule: Q01DX005 (ip), vehicle: saline): 102 % of control
T/C (dose: 120.0 mg/kg/injection, schedule: Q01DX005 (ip), vehicle: saline): 102 % of control

COC(=O)C1CC(C)N1C1CCCCC1 (stereo not given)
T/C [13]: 97 % of control
T/C [14]: 97 % of control
T/C [15]: 101 % of control

NC(=S=O)C(N)=S=O
T/C [1]: 103 % of control and 110 % of control
T/C [2]: 112 % of control and 117 % of control

c1cncc(-c2cc(-c3cc(-c4cccnc4)n[nH]3)[nH]n2)c1
T/C [7]: 103 % of control
T/C [8]: 103 % of control
T/C [9]: 91 % of control

Cc1ncc([N+](=O)[O-])n1CCSC(N)=O
T/C (dose: 50.0 mg/kg/injection, schedule: Q04DX003 (ip), vehicle: saline): 102 % of control and 105 % of control
T/C [16]: 102 % of control and 114 % of control
T/C [17]: 100 % of control and 114 % of control
T/C [18]: 100 % of control and 120 % of control

CCCCN(CCNc1cc(OC)cc2cccnc12)C1CCCC1
T/C [13]: 104 % of control
T/C [14]: 88 % of control

CCCCCC(=O)C(C)C1(C(=O)OC)NC(=S)NC(=O)C1C#N (stereo not given)
T/C [7]: 105 % of control
T/C [8]: 98 % of control
T/C [9]: 97 % of control

CC(=O)OCCSSCCOC(C)=O
T/C [10]: 107 % of control
T/C [11]: 113 % of control

COc1ccc2c(c1)CCC1=C2C=C[P+]1(C)C
T/C [10]: 94 % of control

C=C1C(=O)OC2(C)CCC1CC1OC1(C)CCC=C(C)CCC2O (stereo not given)
T/C (dose: 12.5 mg/kg/injection, schedule: Q01DX009 (ip), vehicle: Klucel (hydroxypropylcellulose) (HPC)): 98 % of control
T/C (dose: 25.0 mg/kg/injection, schedule: Q01DX009 (ip), vehicle: Klucel (hydroxypropylcellulose) (HPC)): 101 % of control
T/C (dose: 50.0 mg/kg/injection, schedule: Q01DX009 (ip), vehicle: Klucel (hydroxypropylcellulose) (HPC)): 106 % of control
T/C (dose: 100.0 mg/kg/injection, schedule: Q01DX009 (ip), vehicle: Klucel (hydroxypropylcellulose) (HPC)): 101 % of control
T/C (dose: 200.0 mg/kg/injection, schedule: Q01DX009 (ip), vehicle: Klucel (hydroxypropylcellulose) (HPC)): 106 % of control

O=C[C@@H](CO)O[C@H](C=O)c1c[nH]c(=O)[nH]c1=O
T/C (dose: 5.0 mg/kg/injection, schedule: Q01DX005 (ip), vehicle: saline): 118 % of control
T/C (dose: 12.5 mg/kg/injection, schedule: Q01DX005 (ip), vehicle: saline): 155 % of control
T/C (dose: 12.5 mg/kg/injection, schedule: Q04DX003 (ip), vehicle: saline): 124 % of control
T/C (dose: 25.0 mg/kg/injection, schedule: Q01DX005 (ip), vehicle: saline): 156 % of control and 158 % of control
T/C (dose: 40.0 mg/kg/injection, schedule: Q01DX005 (ip), vehicle: saline): 155 % of control
T/C [13]: 173 % of control and 190 % of control
T/C (dose: 80.0 mg/kg/injection, schedule: Q01DX005 (ip), vehicle: saline): 186 % of control and 245 % of control
T/C [16]: 185 % of control

CCNC(=O)OCc1c(COC(=O)NCC)c(-c2ccc(Cl)c(Cl)c2)n2c1CCC2
T/C (dose: 2.5 mg/kg/injection, schedule: Q01DX009 (ip), vehicle: distilled water + Tween-80): 152 % of control
T/C (dose: 6.25 mg/kg/injection, schedule: Q01DX009 (ip), vehicle: saline with Tween-80): 154 % of control and 168 % of control
T/C (dose: 10.0 mg/kg/injection, schedule: Q01DX009 (ip), vehicle: distilled water + Tween-80): 180 % of control
T/C (dose: 12.5 mg/kg/injection, schedule: Q01DX009 (ip), vehicle: saline with Tween-80): 166 % of control and 168 % of control and 170 % of control
T/C (dose: 20.0 mg/kg/injection, schedule: Q01DX009 (ip), vehicle: distilled water + Tween-80): 90 % of control

C/C(=C\c1ccc(OCC(=O)O)c(Cl)c1Cl)[N+](=O)[O-]
T/C (dose: 12.5 mg/kg/injection, schedule: Q01DX001 (ip), vehicle: saline with Tween-80): 100 % of control and 102 % of control
T/C (dose: 25.0 mg/kg/injection, schedule: Q01DX001 (ip), vehicle: saline with Tween-80): 98 % of control and 100 % of control

COC1(OC)C(=S)N(C(C)C)C(=S)N1C(C)C
T/C (dose: 50.0 mg/kg/injection, schedule: Q01DX005 (ip), vehicle: Klucel (hydroxypropylcellulose) (HPC)): 100 % of control
T/C (dose: 100.0 mg/kg/injection, schedule: Q01DX005 (ip), vehicle: Klucel (hydroxypropylcellulose) (HPC)): 96 % of control
T/C (dose: 200.0 mg/kg/injection, schedule: Q01DX005 (ip), vehicle: Klucel (hydroxypropylcellulose) (HPC)): 100 % of control

Cc1cc(N=Nc2ccc(NC(=O)c3ccc([N+](=O)[O-])cc3)cc2C)ccc1N=Nc1ccc2cc(S(=O)(=O)O)cc(S(=O)(=O)O)c2c1
T/C (dose: 12.5 mg/kg/injection, schedule: Q01DX005 (ip), vehicle: saline with Tween-80): 102 % of control and 107 % of control and 109 % of control
T/C (dose: 25.0 mg/kg/injection, schedule: Q01DX005 (ip), vehicle: saline with Tween-80): 109 % of control and 111 % of control and 120 % of control
T/C [2]: 111 % of control

O=[N+]([O-])c1ccc(N2N=N[C@@H]3C4CCC(C4O)[C@@H]32)cc1 (stereo not given in full)
T/C [10]: 88 % of control
T/C [11]: 97 % of control
T/C [12]: 89 % of control

O=C1OC(c2ccccc2)(c2ccc(Cl)cc2)CC1/C=C(\c1ccccc1)c1ccc(Cl)cc1 (stereo not given)
T/C [1]: 96 % of control
T/C [2]: 90 % of control
T/C [3]: 91 % of control

Nc1nc[nH]c(=O)c1NC=O
T/C [16]: 120 % of control
T/C [17]: 100 % of control
T/C [18]: 110 % of control
